Source: the supplement of paper PMC10307832

Key:
Assay in all cases: relative viability (nuclei count vs DMSO), 5 days (fraction); higher = more cells survive
LC-2-ad = tested on: LC-2-ad
Summary of the method: (§1)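 Lung cancer cell lines, seeded in 1536-well plates, were treated the following day by pin tool with a single drug or with five library-drug doses (not always all listed) in √10 steps on top of a fixed anchor-drug dose. Cells were fixed and nuclei stained in one step after 5 days, and nuclei were counted. Relative viability is the nuclei count for treated wells divided by that for vehicle wells, reported as medians of duplicate plates.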

NCI-H650 = tested on: NCI-H650
Summary of the method: as §1

NCI-H2347 = tested on: NCI-H2347
Summary of the method: as §1

NCI-H2126 = tested on: NCI-H2126
Summary of the method: as §1

COR-L 105 = tested on: COR-L 105
Summary of the method: as §1

H3255 = tested on: H3255
Summary of the method: as §1

NCI-H661 = tested on: NCI-H661
Summary of the method: as §1

HCC-78 = tested on: HCC-78
Summary of the method: as §1

NCI-H322M = tested on: NCI-H322M
Summary of the method: as §1

PC-14 = tested on: PC-14
Summary of the method: as §1

EPLC-272H = tested on: EPLC-272H
Summary of the method: as §1

LCLC-97TM1 = tested on: LCLC-97TM1
Summary of the method: as §1

NCI-H2087 = tested on: NCI-H2087
Summary of the method: as §1

NCI-H647 = tested on: NCI-H647
Summary of the method: as §1

NCI-H23 = tested on: NCI-H23
Summary of the method: as §1

RERF-LC-KJ = tested on: RERF-LC-KJ
Summary of the method: as §1

201T = tested on: 201T
Summary of the method: as §1

NCI-H2405 = tested on: NCI-H2405
Summary of the method: as §1

NCI-H520 = tested on: NCI-H520
Summary of the method: as §1

NCI-H1915 = tested on: NCI-H1915
Summary of the method: as §1

NCI-H1666 = tested on: NCI-H1666
Summary of the method: as §1

HCC-827 = tested on: HCC-827
Summary of the method: as §1

ChaGo-K-1 = tested on: ChaGo-K-1
Summary of the method: as §1

Molecule `COc1cc(N2CCC(C(N)=O)CC2)ccc1Nc1nc(N)c(Cl)c(Nc2ccccc2S(=O)(=O)C(C)C)n1` [HG-5-88-01] + C[C@@H](Oc1cc(-c2cnn(C3CCNCC3)c2)cnc1N)c1c(Cl)ccc(F)c1Cl [Crizotinib] (partner 1 µM) has a relative viability (LC-2-ad; first compound 0.04 µM) of 0.436, a relative viability (LC-2-ad; first compound 0.1265 µM) of 0.496 and a relative viability (LC-2-ad; first compound 0.4 µM) of 0.5. The relative viability (LC-2-ad; first compound 1.265 µM) was 0.4, the relative viability (LC-2-ad; first compound 4 µM) was 0.368 and the relative viability (NCI-H650; first compound 0.04 µM) was 0.812. It also gave a relative viability (NCI-H650; first compound 0.1265 µM) of 0.739, a relative viability (NCI-H650; first compound 0.4 µM) of 0.579 and a relative viability (NCI-H650; first compound 1.265 µM) of 0.519. For the same molecule, the relative viability (NCI-H650; first compound 4 µM) was 0.398, the relative viability (NCI-H2347; first compound 0.04 µM) was 0.779 and the relative viability (NCI-H2347; first compound 0.1265 µM) was 0.81. It also gave a relative viability (NCI-H2347; first compound 0.4 µM) of 0.834, a relative viability (NCI-H2347; first compound 1.265 µM) of 0.634 and a relative viability (NCI-H2347; first compound 4 µM) of 0.744. For the same molecule, the relative viability (NCI-H2126; first compound 0.04 µM) was 1.02, the relative viability (NCI-H2126; first compound 0.1265 µM) was 1.09 and the relative viability (NCI-H2126; first compound 0.4 µM) was 0.976. The relative viability (NCI-H2126; first compound 1.265 µM) was 0.968, the relative viability (NCI-H2126; first compound 4 µM) was 1.01 and the relative viability (COR-L 105; first compound 0.04 µM) was 0.855. The relative viability (COR-L 105; first compound 0.1265 µM) was 0.728, the relative viability (COR-L 105; first compound 0.4 µM) was 0.519 and the relative viability (COR-L 105; first compound 1.265 µM) was 0.346. For the same molecule, the relative viability (COR-L 105; first compound 4 µM) was 0.366, the relative viability (H3255; first compound 0.04 µM) was 0.844 and the relative viability (H3255; first compound 0.1265 µM) was 0.949. The relative viability (H3255; first compound 0.4 µM) was 0.833, the relative viability (H3255; first compound 4 µM) was 0.308 and the relative viability (NCI-H661; first compound 0.1265 µM) was 0.964. For the same molecule, the relative viability (NCI-H661; first compound 0.4 µM) was 1.1, the relative viability (NCI-H661; first compound 1.265 µM) was 0.777 and the relative viability (NCI-H661; first compound 4 µM) was 0.926. It also gave a relative viability (HCC-78; first compound 0.04 µM) of 0.37, a relative viability (HCC-78; first compound 0.1265 µM) of 0.319 and a relative viability (HCC-78; first compound 0.4 µM) of 0.31. The relative viability (HCC-78; first compound 1.265 µM) was 0.185, the relative viability (HCC-78; first compound 4 µM) was 0.275 and the relative viability (NCI-H322M; first compound 0.04 µM) was 0.978. It also gave a relative viability (NCI-H322M; first compound 0.1265 µM) of 0.855, a relative viability (NCI-H322M; first compound 0.4 µM) of 0.882 and a relative viability (NCI-H322M; first compound 1.265 µM) of 0.687. It also gave a relative viability (NCI-H322M; first compound 4 µM) of 0.818, a relative viability (PC-14; first compound 0.04 µM) of 0.863 and a relative viability (PC-14; first compound 0.1265 µM) of 0.972. The relative viability (PC-14; first compound 0.4 µM) was 0.914, the relative viability (PC-14; first compound 1.265 µM) was 0.783 and the relative viability (PC-14; first compound 4 µM) was 0.238. The relative viability (EPLC-272H; first compound 0.04 µM) was 0.972, the relative viability (EPLC-272H; first compound 0.1265 µM) was 0.909 and the relative viability (EPLC-272H; first compound 0.4 µM) was 0.964. It also gave a relative viability (EPLC-272H; first compound 1.265 µM) of 0.704, a relative viability (EPLC-272H; first compound 4 µM) of 0.0745 and a relative viability (LCLC-97TM1; first compound 0.04 µM) of 0.461. For the same molecule, the relative viability (LCLC-97TM1; first compound 0.1265 µM) was 0.379, the relative viability (LCLC-97TM1; first compound 0.4 µM) was 0.359 and the relative viability (LCLC-97TM1; first compound 1.265 µM) was 0.23. For the same molecule, the relative viability (LCLC-97TM1; first compound 4 µM) was 0.239, the relative viability (NCI-H2087; first compound 0.04 µM) was 0.758 and the relative viability (NCI-H2087; first compound 0.1265 µM) was 0.868. For the same molecule, the relative viability (NCI-H2087; first compound 0.4 µM) was 0.839, the relative viability (NCI-H2087; first compound 1.265 µM) was 0.825 and the relative viability (NCI-H2087; first compound 4 µM) was 0.527. For the same molecule, the relative viability (NCI-H647; first compound 0.04 µM) was 1.16, the relative viability (NCI-H647; first compound 0.1265 µM) was 0.992 and the relative viability (NCI-H647; first compound 1.265 µM) was 0.955. It also gave a relative viability (NCI-H647; first compound 4 µM) of 0.393, a relative viability (NCI-H23; first compound 0.04 µM) of 0.542 and a relative viability (NCI-H23; first compound 0.1265 µM) of 0.43. It also gave a relative viability (NCI-H23; first compound 0.4 µM) of 0.481, a relative viability (NCI-H23; first compound 1.265 µM) of 0.471 and a relative viability (NCI-H23; first compound 4 µM) of 0.26. For the same molecule, the relative viability (RERF-LC-KJ; first compound 0.04 µM) was 0.816, the relative viability (RERF-LC-KJ; first compound 0.1265 µM) was 0.816 and the relative viability (RERF-LC-KJ; first compound 0.4 µM) was 0.81. It also gave a relative viability (RERF-LC-KJ; first compound 1.265 µM) of 0.782, a relative viability (RERF-LC-KJ; first compound 4 µM) of 0.535 and a relative viability (201T; first compound 0.04 µM) of 1. It also gave a relative viability (201T; first compound 0.1265 µM) of 0.846, a relative viability (201T; first compound 0.4 µM) of 1.03 and a relative viability (201T; first compound 1.265 µM) of 0.986. The relative viability (201T; first compound 4 µM) was 1.11, the relative viability (NCI-H2405; first compound 0.04 µM) was 0.841 and the relative viability (NCI-H2405; first compound 0.1265 µM) was 0.821. For the same molecule, the relative viability (NCI-H2405; first compound 0.4 µM) was 0.796, the relative viability (NCI-H2405; first compound 1.265 µM) was 0.599 and the relative viability (NCI-H2405; first compound 4 µM) was 0.901. For the same molecule, the relative viability (NCI-H520; first compound 0.04 µM) was 0.907, the relative viability (NCI-H520; first compound 0.1265 µM) was 0.704 and the relative viability (NCI-H520; first compound 0.4 µM) was 0.711. It also gave a relative viability (NCI-H520; first compound 1.265 µM) of 0.762, a relative viability (NCI-H520; first compound 4 µM) of 0.663 and a relative viability (NCI-H1915; first compound 0.04 µM) of 0.926. The relative viability (NCI-H1915; first compound 0.1265 µM) was 0.885, the relative viability (NCI-H1915; first compound 0.4 µM) was 0.906 and the relative viability (NCI-H1915; first compound 1.265 µM) was 0.928. It also gave a relative viability (NCI-H1915; first compound 4 µM) of 0.808, a relative viability (NCI-H1666; first compound 0.04 µM) of 1.01 and a relative viability (NCI-H1666; first compound 0.1265 µM) of 1.1. It also gave a relative viability (NCI-H1666; first compound 0.4 µM) of 0.941, a relative viability (NCI-H1666; first compound 1.265 µM) of 0.794 and a relative viability (NCI-H1666; first compound 4 µM) of 0.594. The relative viability (HCC-827; first compound 0.04 µM) was 0.946, the relative viability (HCC-827; first compound 0.1265 µM) was 0.917 and the relative viability (HCC-827; first compound 0.4 µM) was 0.94. The relative viability (HCC-827; first compound 1.265 µM) was 0.831, the relative viability (HCC-827; first compound 4 µM) was 0.392 and the relative viability (ChaGo-K-1; first compound 0.04 µM) was 1.12. The relative viability (ChaGo-K-1; first compound 0.1265 µM) was 1.14, the relative viability (ChaGo-K-1; first compound 0.4 µM) was 1.03 and the relative viability (ChaGo-K-1; first compound 1.265 µM) was 0.888. It also gave a relative viability (ChaGo-K-1; first compound 4 µM) of 0.787.
